Tests used:
[1] = molecular target: T1, Lysine-specific histone demethylase 1A (Homo sapiens, UniProt O60341)
Description: Inhibition of LSD1 (unknown origin)

[2] = Antiproliferative activity against human AML cell; format: functional, cell-based; conditions: Acute myeloid leukemic cell
[3] = Antiproliferative activity against human SCLC cell; format: functional, cell-based; conditions: Small cell lung cancer cell line
[4] = molecular target: T1, Lysine-specific histone demethylase 1A; assay: Inhibition of recombinant LSD1 (unknown origin) incubated for 1 hr

C/C(=N\NC(=O)c1cccc(S(=O)(=O)N2CCN(C)CC2)c1)c1cc(Cl)ccc1O gave an IC50 [1] of 0.013 µM.

Work on O=C(O)c1ccc(CN2CCC(CN[C@@H]3C[C@H]3c3ccccc3)CC2)cc1 [GSK2879552] yielded an IC50 [2] of 0.024 µM and an IC50 [3] of 0.024 µM.

Compound Oc1ccc(/C=C/c2cc(O)cc(O)c2)cc1 [RESVERATROL] has an IC50 [4] of 15 µM.

Reference: ChEMBL document CHEMBL5107981, “A comprehensive comparative study on LSD1 in different cancers and tumor specific LSD1 inhibitors” (Eur J Med Chem, 2022)
